Source: patent US12264323B2, “CRISPR CPF1 direct repeat variants” (THE BROAD INSTITUTE, INC., priority 2018, dated 2025)

Experiments:
[1] = test system: genome-wide off-target sites; conditions: genome-wide assessment of off-target activity; cited from earlier work
[2] = test system: target sites with TYCV/CCCC and TATV PAMs; conditions: in vitro and in human cells; cited from earlier work
Factor VII = conditions: LNP siRNA systems containing the lipid; hepatocytes in vivo; cited from earlier work
dystrophin = conditions: 48 weeks; cited from earlier work
essential genes [3] = experiment: AsCas12a tiling library pooled dropout (viability) screens; type: cell-based, human; design: AUC after selecting top half of guides by Seq-DeepCpf1 score: unit not given beside the values; conditions: for guides targeting a TTTT site observed to be active / precision recall area under curve (AUC): A375 viability data; for guides targeting a TTTT site observed to be active: activity cutoff 5th percentile of guides targeting control genes; for precision recall area under curve (AUC): essential gene guides true positives, control gene guides false positives, TTTT PAMs excluded for AsCas12a; for AUC after selecting top half of guides by Seq-DeepCpf1 score: essential and non-essential guides of the tiling screens; for guides active, all guides / guides active, quartile with the highest Seq-DeepCpf1 prediction scores: guides targeting essential genes, cutoff 5th percentile of cell surface control guides
From the text: The AsCas12a library was cloned into a modified version of lentiGuide, pRDA_052, which expresses the guide from a U6 promoter and confers puromycin resistance.

essential genes [4] = experiment: Mismatched guide library off-target dropout screen in A375 cells; conditions: cutoff 5th percentile of controls
Procedure: Cell lines stably expressing Cas12a were transduced with guides cloned into the pRDA_052 vector in two biological replicates at a low MOI (˜0.5). Transductions were performed with enough cells to achieve a representation of at least 500 cells per guide per replicate, taking into account a 30-50% transduction efficiency. Throughout the screen, cells were split at a density to maintain a representation of at least 500 cells per guide, and cell counts were taken at each passage to monitor growth. Puromycin selection was added 2 days post-transduction and was maintained for 5-7 days. After puromycin selection was complete, each replicate was divided into untreated (i.e. no drug/dropout arms) and small molecule treatment arms, each at a representation of at least 500 cells per guide.
In order to assess the off-target tolerance of AsCas12a, a library of guides intentionally mismatched to their target was constructed. […] Screens were performed in duplicate in A375 cells with dropout, vemurafenib, and 6-thioguanine arms in cells stably expressing 2×NLS-Cas12a and enCas12a.

MAPK1-MAPK3 = experiment: Synthetic lethal (SynLet) multiplexed guide pair screen; type: cell-based, human; conditions: MAPK1-MAPK3, OVCAR8 cells
From the text: For a construct with the ordered elements guide1, DR, guide2, it can be said that the
[formula] where m and β are a fitted slope and intercept. The residual then is the difference between the observed and expected LFCs. Filtering SynLet Libraries
To assess the effectiveness of multiplexing across numerous endogenous genes, a library targeting synthetically lethal (SynLet) gene pairs was designed. […] For As Cas12a, a second guide needed only 43 additional nucleotides. […] Furthermore, the proximity of guides in the enCas12a construct made sequencing and downstream analyses easier.
For each gene in a given pair, up to 20 guides were picked at random, 15 and 5 of which targeted TTTV and TTTT PAMs respectively (FIG. 15A). Pairs were screened in both orientations and the top three direct repeats were used. Thus, each gene pair was assessed with up to 2,400 unique constructs (20 guides×20 guides×2 orientations×3 DRs). […]
To quantitate synergies between guide pairs, an expected phenotype was first calculated by determining the average LFC of each targeting guide when it was coupled with controls (FIG. 29A), and then summing the average LFC for the two guides. […] Finally, the residual from the fit line for all constructs were calculated, where a negative residual indicates a synthetic lethal pair. […]

essential genes [5] = experiment: PAM identification by analysis of essential genes in a dropout screen; type: cell-based; conditions: cell lines A375, MelJuSo, A549, OVCAR8, and 7860
CD47, CD63, and B2M = experiment: Triple knockout with Cas12a, flow cytometry of cell surface markers in A375 cells; type: cell-based, human; conditions: 6 multiplexed arrays, three timepoints, irrespective of guide position
Procedure: A375 cells stably expressing enCas12a were transduced with 6 triple knockout arrays, 3 single knockout constructs, and one empty control vector. Two days after transduction, cells were selected with puromycin ([…]), and passaged on puromycin for 7 days. Cells were visualized by flow cytometry on the BDAccuri C6 Sampler system 9, 18, and 25 days post infection. […] Flow cytometry data were analyzed using FlowJo (v10). […] Zero, single, double, and triple knockout populations were quantified using boolean gating in FlowJo.
Using these guides, 6 multiplexed arrays with all possible guide orientations were generated (FIG. 21A-21B). Three single guide constructs, and one empty vector control, and used flow cytometry were also included (FIGS. 31A-31E) to quantify the fraction of cells that were edited or not for all three markers. […] In this internally-controlled assay, EGFP labels cells without enCas12a (and thus no dsDNA breaks) and the fraction of enCas12a-positive, EGFP-negative cells over time was measured by flow cytometry (FIG. 33A). […]

[6] = test system: target sites preceded by a PAM; experiment: Determination of PAM (plasmid depletion in E. coli); type: cell-based; conditions: N is A/C/G or T
From the text: Determination of PAM can be ensured as follows This experiment closely parallels similar work in E. coli for the heterologous expression of StCas9 (Sapranauskas, R. et al. Nucleic Acids Res 39, 9275-9282 (2011)). Applicants introduce a plasmid containing both a PAM and a resistance gene into the heterologous E. coli, and then plate on the corresponding antibiotic. If there is DNA cleavage of the plasmid, Applicants observe no viable colonies.
In further detail, the assay is as follows for a DNA target. Two E. coli strains are used in this assay. One carries a plasmid that encodes the endogenous effector protein locus from the bacterial strain. The other strain carries an empty plasmid (e.g. pACYC184, control strain). All possible 7 or 8 bp PAM sequences are presented on an antibiotic resistance plasmid (pUC19 with ampicillin resistance gene). The PAM is located next to the sequence of proto-spacer 1 (the DNA target to the first spacer in the endogenous effector protein locus). Two PAM libraries were cloned. One has an 8 random bp 5′ of the proto-spacer (e.g., total of 65536 different PAM sequences=complexity). The other library has 7 random bp 3′ of the proto-spacer (e.g. total complexity is 16384 different PAMs). Both libraries were cloned to have in average 500 plasmids per possible PAM. […]

Molecule: S542R/K607R: variant of AsCpf1 engineered with the mutations S542R/K607R
- DNA targeting specificity [1]: retain a high level of DNA targeting specificity
- PAMs of target sites that can be cleaved [2]: TYCV/CCCC

Molecule: S542R/K548V/N552R: variant of AsCpf1 engineered with the mutations S542R/K548V/N552R
- DNA targeting specificity [1]: retain a high level of DNA targeting specificity
- PAMs of target sites that can be cleaved [2]: TATV

Molecule: CCCCC/C=C\C/C=C\CCCCCCCC(=O)OCC(CN(C)C)OC(=O)CCCCCCC/C=C\C/C=C\CCCCC (stereo not shown) [DLinDAP, 1,2-dilineoyl-3-dimethylammonium-propane]
- potency order of gene silencing (Factor VII): DLinKC2-DMA>DLinKDMA>DLinDMA>>DLinDAP

Molecule: CCCCC/C=C\C/C=C\CCCCCCCCOCC(CN(C)C)OCCCCCCCC/C=C\C/C=C\CCCCC (stereo not shown) [DLinDMA, 1,2-dilinoleyloxy-3-N,N-dimethylaminopropane]
- potency order of gene silencing (Factor VII): DLinKC2-DMA>DLinKDMA>DLinDMA>>DLinDAP

Molecule: Eteplirsen
- dystrophin positive fibers compared to baseline (average) (dystrophin): 47%

Molecule: 1×NLS-Cas12a: lx-NLS-Cas12a lentiviral expression construct; Addgene 84750 [reference compound]
- guides targeting a TTTT site observed to be active (essential genes [3]): 7%
- precision recall area under curve (AUC) (essential genes [3]): 0.61

Molecule: CCCCC/C=C\C/C=C\CCCCCCCCC1(CCCCCCCC/C=C\C/C=C\CCCCC)OCC(CCN(C)C)O1 (stereo not shown) [DLinKC2-DMA, 1,2-dilinoleyl-4-(2-dimethylaminoethyl)-[1,3]-dioxolane]
- potency order of gene silencing (Factor VII): DLinKC2-DMA>DLinKDMA>DLinDMA>>DLinDAP

Molecule: enCas12a: enCas12a lentiviral expression construct; AsCas12a comprising E174R/S542R/K548R mutations
- double mismatch guides active (essential genes [4]): 16%
- perfect match guides scoring as active (essential genes [4]): 91%
- single mismatch guides active (essential genes [4]): 54%
- guides targeting a TTTT site observed to be active (essential genes [3]): 57%
- precision recall area under curve (AUC) (essential genes [3]): 0.96
- EEF2 guides targeting TTTN active (essential genes [3]; EEF2 guides of the tiling library): 62%
- non-canonical tier 1 guides active, quartile with highest Seq-DeepCpf1 scores (essential genes [3]; TTTC substituted in silico for the actual PAM): 93%
- AUC after selecting top half of guides by Seq-DeepCpf1 score (essential genes [3]): 0.97
- guides active, all guides (essential genes [3]): 80%
- guides active, quartile with the highest Seq-DeepCpf1 prediction scores (essential genes [3]): 94%
- EEF2 guides targeting the other tier 1 PAMs active (essential genes [3]; non-canonical (non-TTTN) PAMs): 68%

Molecule: 2×NLS-Cas12a: 2×-NLS-Cas12a lentiviral expression construct
- double mismatch guides active (essential genes [4]): 9%
- perfect match guides scoring as active (essential genes [4]): 94%
- single mismatch guides active (essential genes [4]): 28%
- guides targeting a TTTT site observed to be active (essential genes [3]): 7%
- precision recall area under curve (AUC) (essential genes [3]): 0.84
- AUC after selecting top half of guides by Seq-DeepCpf1 score (essential genes [3]): 0.94
- guides active, all guides (essential genes [3]): 47%
- guides active, quartile with the highest Seq-DeepCpf1 prediction scores (essential genes [3]): 92%

Molecule: AsCas12a: Cas12a (Cpf1) effector used for the screens, here in multiplexed guide arrays
- guide pairs scored as synthetic lethal (MAPK1-MAPK3): 98%
- protospacer adjacent motif (PAM) (essential genes [5]): TTTV
- cells showing editing at all three loci (CD47, CD63, and B2M): approximately 70%

Molecule: AsCpf1: Acidaminococcus sp. BV3L6 Cpf1
- PAM preceding the target sites that can be cleaved [6]: TTTV

Molecule: 1,2-dilinoleyloxy-keto-N,N-dimethyl-3-aminopropane [DLinKDMA]
- potency order of gene silencing (Factor VII): DLinKC2-DMA>DLinKDMA>DLinDMA>>DLinDAP
